# Reference: the supplement of paper PMC4862054
# Assays:
# BT-474 [1] = details: 72 h
# Procedure, shortened: (§1)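 The plates used were 384-well plates holding compound at 5 concentrations in 10-fold steps across a compound-specific 10,000-fold range, into which breast cancer cell lines were seeded in 20 µl suspension. Following 72 h incubation, CellTox Green fluorescence was read at 485/520 nm, and CellTiter-Glo luminescence was read after 10 min at room temperature. Normalisation on each plate used 0.1 % DMSO and a positive kill control. Dose-response curves gave the EC50, which was censored at the top concentration.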
# HDQ-P1 [2] = details: 72 h
# Procedure, shortened: as §1
# MDA-MB-468 [3] = details: 72 h
# Procedure, shortened: as §1
# BT-474 [4] = assay: normalised viability (% of control), CellTiter-Blue; higher = more viable cells (about 100 = DMSO control); details: 100 nM; incubation time: 72 h
# Method: (§2)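 DSRT, CellTiter-Blue viability, 72 h incubation. Signal is normalised to DMSO and benzethonium chloride controls. Value is the normalised response at dose 3.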
# BT-549 = assay: as above; details: 100 nM; incubation time: 72 h
# Method: as §2
# CAL-120 = assay: as above; details: 100 nM; incubation time: 72 h
# Method: as §2
# CAL-148 = assay: as above; details: 10 nM; incubation time: 72 h
# Method: as §2
# CAL-51 = assay: as above; details: 10 nM; incubation time: 72 h
# Method: as §2
# CAL-85-1 = assay: as above; details: 10 nM; incubation time: 72 h
# Method: as §2
# DU-4475 [5] = assay: as above; details: 10 nM; incubation time: 72 h
# Method: as §2
# HCC1143 = assay: as above; details: 100 nM; incubation time: 72 h
# Method: as §2
# HCC1599 = assay: as above; details: 100 nM; incubation time: 72 h
# Method: as §2
# HCC1937 [6] = assay: as above; details: 100 nM; incubation time: 72 h
# Method: as §2
# HDQ-P1 [7] = assay: as above; details: 10 nM; incubation time: 72 h
# Method: as §2
# Hs578T = assay: as above; details: 100 nM; incubation time: 72 h
# Method: as §2
# MDA-MB-231 [8] = assay: as above; details: 100 nM; incubation time: 72 h
# Method: as §2
# MDA-MB-436 [9] = assay: as above; details: 100 nM; incubation time: 72 h
# Method: as §2
# MDA-MB-453 [10] = assay: as above; details: 10 nM; incubation time: 72 h
# Method: as §2
# MDA-MB-468 [11] = assay: as above; details: 100 nM; incubation time: 72 h
# Method: as §2
# MFM-223 [12] = assay: as above; details: 100 nM; incubation time: 72 h
# Method: as §2
# SK-BR-3 = assay: as above; details: 100 nM; incubation time: 72 h
# Method: as §2
# BT-474 [13] = assay: drug sensitivity score (DSS), CellTox Green (DSS (AUC-based score)); higher = stronger drug effect (viability inhibition or cytotoxicity); extreme values may be limits of the assay; details: incubation time: 72 h
# Procedure, shortened: (§3)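 Breast cancer cell lines (20 µl suspension) were seeded into 384-well plates holding compound at 5 concentrations in 10-fold steps over a compound-specific 10,000-fold range, then incubated 72 h. CellTox Green fluorescence (485/520 nm) was read first, then CellTiter-Glo luminescence after 10 min at room temperature. Each plate was normalised to 0.1 % DMSO and a positive kill control. The drug sensitivity score was calculated from the area under the fitted dose-response curve.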
# DU-4475 [14] = assay: as above; details: incubation time: 72 h
# Procedure, shortened: as §3
# HCC1937 [15] = assay: as above; details: incubation time: 72 h
# Procedure, shortened: as §3
# HDQ-P1 [16] = assay: as above; details: incubation time: 72 h
# Procedure, shortened: as §3
# MDA-MB-231 [17] = assay: as above; details: incubation time: 72 h
# Procedure, shortened: as §3
# MDA-MB-436 [18] = assay: as above; details: incubation time: 72 h
# Procedure, shortened: as §3
# MDA-MB-453 [19] = assay: as above; details: incubation time: 72 h
# Procedure, shortened: as §3
# MFM-223 [20] = assay: as above; details: incubation time: 72 h
# Procedure, shortened: as §3
SMILES,"EC50, CellTiter-Glo (BT-474 [1]) [nM]","EC50, CellTiter-Glo (HDQ-P1 [2]) [nM]","EC50, CellTiter-Glo (MDA-MB-468 [3]) [nM]",normalised viability (BT-474 [4]) [%],normalised viability (BT-549) [%],normalised viability (CAL-120) [%],normalised viability (CAL-148) [%],normalised viability (CAL-51) [%],normalised viability (CAL-85-1) [%],normalised viability (DU-4475 [5]) [%],normalised viability (HCC1143) [%],normalised viability (HCC1599) [%],normalised viability (HCC1937 [6]) [%],normalised viability (HDQ-P1 [7]) [%],normalised viability (Hs578T) [%],normalised viability (MDA-MB-231 [8]) [%],normalised viability (MDA-MB-436 [9]) [%],normalised viability (MDA-MB-453 [10]) [%],normalised viability (MDA-MB-468 [11]) [%],normalised viability (MFM-223 [12]) [%],normalised viability (SK-BR-3) [%],drug sensitivity score (BT-474 [13]),drug sensitivity score (DU-4475 [14]),drug sensitivity score (HCC1937 [15]),drug sensitivity score (HDQ-P1 [16]),drug sensitivity score (MDA-MB-231 [17]),drug sensitivity score (MDA-MB-436 [18]),drug sensitivity score (MDA-MB-453 [19]),drug sensitivity score (MFM-223 [20])
COc1cc2c(cc1O)CC[C@@H]1[C@@H]2CC[C@]2(C)[C@@H](O)CC[C@@H]12 [2-methoxyestradiol],573,7460,2800,121,91.7,87.9,93.3,118,101,106,99.8,95,103,98.8,103,94.3,100,95.3,102,108,99.2,3.99,0,0,0,13.2,0,0,6.65
CC(C)(C)c1cnc(CSc2cnc(NC(=O)C3CCNCC3)s2)o1 [SNS-032],112,50,36,85.5,91.7,69,89.1,117,96.2,101,76.5,78.6,53.2,132,52.8,69.5,104,99.8,96.9,82.7,62.1,0,0,0,11.4,30.8,0,0,6.31
Cn1cc(C2=Nc3cc(NC(=O)C(N)C4CCCCC4)cc4c3C2=CNNC4=O)cn1 (configuration not stated),2290,9680,396,108,100,89.9,93.1,98.2,81.8,108,101,75.9,90.7,98.4,87.3,83.3,93.4,85.9,106,69.2,38.4,0,0,0,7.95,8.99,0,3.06,5.76
